From ChEMBL document CHEMBL1201862, “PubChem BioAssay data set” (2004)
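Growth conditions: 96-well plates. Treatment: test compound, 48 hours, 5 concentrations. Analysis: linear interpolation between bracketing concentrations; unreached endpoints set to highest concentration. Abbreviation: GI50, concentration required for 50% inhibition of growth.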 Activity calls are given as the source filed them. Rule as the data show it: active = GI50 up to about 1.1 µM and inactive = higher.

How the values were obtained:
Experiment in all cases: growth of human tumour cells (NCI), 48 h
CAKI-1 = test system: CAKI-1
T47D = test system: T47D
SR = test system: SR
A549 = test system: A549
HL-60 = test system: HL-60
HCT-116 = test system: HCT-116
PC-3 = test system: PC-3
LOX IMVI = test system: LOX IMVI
HOP-92 = test system: HOP-92
NCI-H226 = test system: NCI-H226
MOLT-4 = test system: MOLT-4
HCT-15 = test system: HCT-15
786-0 = test system: 786-0
MDA-N = test system: MDA-N
NCI-H460 = test system: NCI-H460
SK-MEL-2 = test system: SK-MEL-2
SNB-19 = test system: SNB-19
U-251 = test system: U-251
UO-31 = test system: UO-31

SMILES	GI50 (CAKI-1)	GI50 (T47D)	GI50 (SR)	GI50 (A549)	GI50 (HL-60)	GI50 (HCT-116)	GI50 (PC-3)	GI50 (LOX IMVI)	GI50 (HOP-92)	GI50 (NCI-H226)	GI50 (MOLT-4)	GI50 (HCT-15)	GI50 (786-0)	GI50 (MDA-N)	GI50 (NCI-H460)	GI50 (SK-MEL-2)	GI50 (SNB-19)	GI50 (U-251)	GI50 (UO-31)
N#Cc1c(-c2ccco2)c2c(n(C3OC(CO)C(O)C(O)C3O)c1=S)CCCC2 (stereo not given)	> 100 µM (inactive)	85.5 µM (inactive)	> 100 µM (inactive)	> 100 µM (inactive)	> 100 µM (inactive)	> 100 µM (inactive)	> 100 µM (inactive)	> 100 µM (inactive)	> 100 µM (inactive)	> 100 µM (inactive)	> 100 µM (inactive)	> 100 µM	> 100 µM (inactive)	> 100 µM (inactive)	> 100 µM (inactive)	> 100 µM (inactive)	–	–	–
COC(=O)/C=C/[C@@H]1[C@H](C)N1S(=O)(=O)c1ccc(C)cc1 (stereo not given in full)	> 100 µM (inactive)	> 100 µM (inactive)	> 100 µM (inactive)	> 100 µM (inactive)	> 100 µM (inactive)	> 100 µM (inactive)	> 100 µM (inactive)	56.4 µM (inactive)	–	> 100 µM (inactive)	> 100 µM (inactive)	> 100 µM	61.4 µM (inactive)	> 100 µM (inactive)	> 100 µM (inactive)	29.7 µM (inactive)	> 100 µM (inactive)	> 100 µM (inactive)	–
CN(C)c1ccc(/C=C/c2ccnc3ccccc23)cc1	> 100 µM (inactive)	96.8 µM (inactive)	30.5 µM (inactive)	61.4 µM (inactive)	31.6 µM (inactive)	39.8 µM (inactive)	> 100 µM (inactive)	53.3 µM (inactive)	93.3 µM (inactive)	–	–	61.1 µM	89.7 µM (inactive)	17.7 µM (inactive)	47.9 µM (inactive)	58.2 µM (inactive)	> 100 µM (inactive)	84.7 µM (inactive)	43.9 µM (inactive)
O=[N+]([O-])c1ccc([I+]c2ccccc2)cc1	3.95 µM (inactive)	6.52 µM (inactive)	2.53 µM (inactive)	6.64 µM (inactive)	5.4 µM (inactive)	3.77 µM (inactive)	5.52 µM (inactive)	–	9.79 µM (inactive)	9.08 µM (inactive)	2.25 µM (inactive)	7.35 µM	4.26 µM (inactive)	6.56 µM (inactive)	5.52 µM (inactive)	–	5.52 µM (inactive)	5.46 µM (inactive)	6.03 µM (inactive)
O=[N+]([O-])c1ccc(/C=N/CC2CCCN3CCCCC23)cc1 (stereo not given)	> 100 µM (inactive)	> 100 µM (inactive)	4.22 µM (inactive)	36.2 µM (inactive)	26.7 µM (inactive)	58.6 µM (inactive)	> 100 µM (inactive)	15.5 µM (inactive)	> 100 µM (inactive)	–	22.9 µM (inactive)	42.7 µM	22.8 µM (inactive)	34.9 µM (inactive)	> 100 µM (inactive)	> 100 µM (inactive)	> 100 µM (inactive)	40.6 µM (inactive)	34.2 µM (inactive)
CCOC(=O)/C(=C/NC(=S)Nc1c(CC)cccc1C(C)(C)C)C(=O)c1ccccc1	> 100 µM (inactive)	> 100 µM (inactive)	> 100 µM (inactive)	> 100 µM (inactive)	59.3 µM (inactive)	> 100 µM (inactive)	> 100 µM (inactive)	> 100 µM (inactive)	–	> 100 µM (inactive)	> 100 µM (inactive)	> 100 µM	> 100 µM (inactive)	> 100 µM (inactive)	10 µM (inactive)	> 100 µM (inactive)	–	> 100 µM (inactive)	14.7 µM (inactive)
O=C1NC(=S)N/C1=C\c1ccc(Sc2ccccc2C(=O)O)s1	70.3 µM (inactive)	> 100 µM (inactive)	> 100 µM (inactive)	–	44.8 µM (inactive)	> 100 µM (inactive)	> 100 µM (inactive)	> 100 µM (inactive)	–	> 100 µM (inactive)	> 100 µM (inactive)	> 100 µM	> 100 µM (inactive)	> 100 µM (inactive)	> 100 µM (inactive)	> 100 µM (inactive)	> 100 µM (inactive)	> 100 µM (inactive)	> 100 µM (inactive)
COc1ccc(/C=N/n2c(Cc3ccc(Cl)cc3)n[nH]c2=O)cc1	30.8 µM (inactive)	54.1 µM (inactive)	37.3 µM (inactive)	43.6 µM (inactive)	–	24.9 µM (inactive)	92.5 µM (inactive)	–	17.3 µM (inactive)	36.2 µM (inactive)	> 100 µM (inactive)	38 µM	17.7 µM (inactive)	> 100 µM (inactive)	> 100 µM (inactive)	21.6 µM (inactive)	15.7 µM (inactive)	14.3 µM (inactive)	> 100 µM (inactive)
O=C1Oc2ccccc2C(=O)/C1=C/N1C(=O)/C(=C/c2ccc([N+](=O)[O-])cc2)SC1=S	24.5 µM (inactive)	5.98 µM (inactive)	31.6 µM (inactive)	26.7 µM (inactive)	36.1 µM (inactive)	19.3 µM (inactive)	18.2 µM (inactive)	29.6 µM (inactive)	1.08 µM (active)	15.1 µM (inactive)	29.8 µM (inactive)	19.1 µM	30.5 µM (inactive)	17.2 µM (inactive)	18.5 µM (inactive)	24 µM (inactive)	21.9 µM (inactive)	18.9 µM (inactive)	–
O=c1[nH][nH]c(=O)n1CCCCCCn1c(=O)[nH][nH]c1=O	> 100 µM (inactive)	> 100 µM (inactive)	> 100 µM (inactive)	> 100 µM (inactive)	> 100 µM (inactive)	> 100 µM (inactive)	> 100 µM (inactive)	> 100 µM (inactive)	–	> 100 µM (inactive)	> 100 µM (inactive)	> 100 µM	> 100 µM (inactive)	> 100 µM (inactive)	> 100 µM (inactive)	> 100 µM (inactive)	> 100 µM (inactive)	> 100 µM (inactive)	> 100 µM (inactive)
O=C(c1cccc2cc(O)ccc12)c1cn(CCN2CCOCC2)c2ccccc12	39.4 µM (inactive)	38.3 µM (inactive)	50.2 µM (inactive)	–	28.2 µM (inactive)	20 µM (inactive)	12 µM (inactive)	20.6 µM (inactive)	31.4 µM (inactive)	39.9 µM (inactive)	34.7 µM (inactive)	–	21.1 µM (inactive)	25.2 µM (inactive)	–	11 µM (inactive)	55.7 µM (inactive)	–	24.1 µM (inactive)
OC(COC(c1ccccc1)(c1ccccc1)c1ccccc1)C(O)CC1SCCS1 (stereo not given)	21.3 µM (inactive)	14.1 µM (inactive)	0.0275 µM (active)	–	13.9 µM (inactive)	16.4 µM (inactive)	11.8 µM (inactive)	13.5 µM (inactive)	–	14.9 µM (inactive)	8.91 µM (inactive)	21.8 µM	17.6 µM (inactive)	19 µM (inactive)	–	11.5 µM (inactive)	21.7 µM (inactive)	21.8 µM (inactive)	10.9 µM (inactive)
COc1cc(C2SCC(=O)N2c2ccc(-n3c(-c4ccccc4)nc4ccccc4c3=O)cc2)cc(OC)c1OC (stereo not given)	> 100 µM (inactive)	27.9 µM (inactive)	45.4 µM (inactive)	> 100 µM (inactive)	> 100 µM (inactive)	> 100 µM (inactive)	> 100 µM (inactive)	> 100 µM (inactive)	28.6 µM (inactive)	–	20.1 µM (inactive)	71.1 µM	> 100 µM (inactive)	> 100 µM (inactive)	> 100 µM (inactive)	> 100 µM (inactive)	> 100 µM (inactive)	> 100 µM (inactive)	8.71 µM (inactive)
O=c1c2c3c(sc2nc2n1N=CN(c1ccccc1)C2)CCCC3	> 100 µM (inactive)	> 100 µM (inactive)	> 100 µM (inactive)	> 100 µM (inactive)	–	> 100 µM (inactive)	> 100 µM (inactive)	> 100 µM (inactive)	> 100 µM (inactive)	> 100 µM (inactive)	> 100 µM (inactive)	> 100 µM	> 100 µM (inactive)	> 100 µM (inactive)	> 100 µM (inactive)	> 100 µM (inactive)	> 100 µM (inactive)	> 100 µM (inactive)	> 100 µM (inactive)
CC(=O)OCC1=C2C(OC(=O)C(C)C)CC3(COC(C)=O)OC3/C=C\C3(C)OC3C2OC1=O (stereo not given)	> 100 µM (inactive)	> 100 µM (inactive)	> 100 µM (inactive)	> 100 µM (inactive)	34.4 µM (inactive)	> 100 µM (inactive)	> 100 µM (inactive)	> 100 µM (inactive)	–	> 100 µM (inactive)	> 100 µM (inactive)	> 100 µM	> 100 µM (inactive)	> 100 µM (inactive)	> 100 µM (inactive)	> 100 µM (inactive)	> 100 µM (inactive)	> 100 µM (inactive)	> 100 µM (inactive)
CN(C)CCOc1ccc2[nH]c(C(=O)N3CC(CCl)c4ccc(N)cc43)cc2c1 (stereo not given)	0.0489 µM (active)	0.0424 µM (active)	< 0.0179 µM (active)	0.0667 µM (active)	–	0.0354 µM (active)	0.0459 µM (active)	0.0601 µM (active)	0.36 µM (active)	0.0776 µM (active)	< 0.01 µM (active)	0.102 µM	0.0687 µM (active)	0.143 µM (active)	0.0273 µM (active)	0.0653 µM (active)	0.258 µM (active)	0.0912 µM (active)	0.065 µM (active)
